Assay results taken from patent publication US9969752B2, “Inhibitors of HIF prolyl hydroxylase” (MERCK SHARP & DOHME CORP., priority 2014, dated 2018).
Where two headings read alike, the source gives them in different places.

Target: T1, Human HIF-PHD2 (Homo sapiens, UniProt Q9GZT9)
T1 construct: FLAG-tagged full length PHD2 expressed in and purified from baculovirus-infected Sf9 cells; FLAG; made in house; host or cells: baculovirus-infected Sf9 cells
Assay: Inhibition of the hydroxylation of a HIF peptide by PHD2 (time resolved fluorescence, 384-well)
Assay type: biochemical
Settings: FLAG-tagged full length PHD2, 0.2 μM 2-oxoglutarate, 0.5 μM HIF-1α peptide, 45 minutes at room temperature
Description: To each well of a 384-well plate, 1 μL of test compounds in DMSO (final concentration ranging from 0.3 nM to 10 uM) were added into 20 μl of assay buffer (50 mM Tris pH 7.4/0.01% Tween-20/0.1 mg/ml bovine serum albumin/10 μM ferrous sulfate/1 mM sodium ascorbate/20 μg/ml catalase) containing 0.15 μg/ml FLAG-tagged full length PHD2 expressed in and purified from baculovirus-infected Sf9 cells. After a 5 min preincubation at room temperature, the enzymatic reactions were initiated by the addition of 4 μL of substrates {final concentrations of 0.2 μM 2-oxoglutarate and 0.5 μM HIF-1α peptide biotinyl-[…] […] After incubation for 45 minutes at room temperature, the reactions were terminated by the addition of a 25 μL quench/detection mix to a final concentration of 1 mM ortho-phenanthroline, 0.1 mM EDTA, 0.5 nM anti-(His)6 LANCE reagent (Perkin-Elmer Life Sciences), 100 nM AF647-labeled streptavidin (Invitrogen), and 2 μg/ml (His)6-VHL complex {S. Tan Protein Expr. Purif.

[1] = read-out: MS m/z (M + 1)+ and human HIF-PHD2 IC50

T1 sequence (Q9GZT9 whole entry): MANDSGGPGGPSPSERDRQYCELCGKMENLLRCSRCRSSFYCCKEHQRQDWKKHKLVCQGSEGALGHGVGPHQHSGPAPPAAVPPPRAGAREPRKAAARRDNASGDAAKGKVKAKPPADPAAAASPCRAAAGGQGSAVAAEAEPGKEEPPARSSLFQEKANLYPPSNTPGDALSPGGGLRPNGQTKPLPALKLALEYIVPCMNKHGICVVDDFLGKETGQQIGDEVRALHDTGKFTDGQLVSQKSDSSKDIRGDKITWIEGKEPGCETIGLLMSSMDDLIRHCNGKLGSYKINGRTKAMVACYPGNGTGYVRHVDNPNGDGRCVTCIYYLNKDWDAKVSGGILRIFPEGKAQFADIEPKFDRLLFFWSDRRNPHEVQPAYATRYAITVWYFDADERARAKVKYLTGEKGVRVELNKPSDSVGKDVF

Row | IC50 (read-out: Human HIF-PHD2 IC50) [nM] | IC50 [1] [nM] | Compound
1 | 5.7 | – | O=C(O)CNC(=O)c1c(O)c2ccc(Br)c3c2n(c1=O)C(Cc1ccc(C(F)(F)F)cc1)CO3 (stereo not shown) [Example 27, 2-(10-Bromo-7-hydroxy-5-oxo-3-(4-(trifluoromethyl)benzyl)-3,5-dihydro-2H-[1,4]oxazino[2,3,4-ij]quinoline-6-carboxamido)acetic acid]
2 | 6.1 | – | NC(=O)c1ccc(-c2ccc(C3COc4cccc5c(O)c(C(=O)NCC(=O)O)c(=O)n3c45)cc2)cc1 (stereo not shown) [Example 141, N-{[3-(4′-Carbamoylbiphenyl-4-yl)-7-hydroxy-5-oxo-2,3-dihydro-5H-[1,4]oxazino[2,3,4-ij]quinolin-6-yl]carbonyl}glycine]
3 | – | 13 | N#Cc1cccc(-c2ccc(C3COc4cccc5c(O)c(C(=O)NCC(=O)O)c(=O)n3c45)cc2)c1 (stereo not shown) [Example 150, N-{[3-(3′-cyanobiphenyl-4-yl)-7-hydroxy-5-oxo-2,3-dihydro-5H-[1,4]oxazino[2,3,4-ij]quinolin-6-yl]carbonyl}glycine]
4 | – | 6.7 | COc1ccc(-c2ccc(C3COc4cccc5c(O)c(C(=O)NCC(=O)O)c(=O)n3c45)cc2)cc1 (stereo not shown) [Example 145, N-{[7-hydroxy-3-(4′-methoxybiphenyl-4-yl)-5-oxo-2,3-dihydro-5H-[1,4]oxazino[2,3,4-ij]quinolin-6-yl]carbonyl}glycine]
5 | – | 6.1 | N#Cc1ccc(-c2ccc(C3COc4cccc5c(O)c(C(=O)NCC(=O)O)c(=O)n3c45)cc2)cc1 (stereo not shown) [Example 146, N-{[3-(4′-cyanobiphenyl-4-yl)-7-hydroxy-5-oxo-2,3-dihydro-5H-[1,4]oxazino[2,3,4-ij]quinolin-6-yl]carbonyl}glycine]
6 | 5.8 | – | N#Cc1cc2c3c(c1)c(O)c(C(=O)NCC(=O)O)c(=O)n3C(c1ccc(C(F)(F)F)cc1)CS2 (stereo not shown) [Example 102, 2-(9-Cyano-7-hydroxy-5-oxo-3-(4-(trifluoromethyl)phenyl)-3,5-dihydro-2H-[1,4]thiazino[2,3,4-ij]quinoline-6-carboxamido)acetic acid]
7 | 1.4 | – | CS(=O)(=O)c1cc2c3c(c1)c(O)c(C(=O)NCC(=O)O)c(=O)n3CCC2 [Example 49, 2-(1-Hydroxy-9-(methylsulfonyl)-3-oxo-3,5,6,7-tetrahydropyrido[3,2,1-ij]quinoline-2-carboxamido)acetic acid]
8 | – | 9.2 | O=C(O)CNC(=O)c1c(O)c2cccc3c2n(c1=O)C(c1ccc(-c2cccnc2)cc1)CO3 (stereo not shown) [Example 151, N-{[7-hydroxy-5-oxo-3-(4-pyridin-3-ylphenyl)-2,3-dihydro-5H-[1,4]oxazino[2,3,4-ij]quinolin-6-yl]carbonyl}glycine]
9 | 15 | – | CN1c2cc(F)cc3c(O)c(C(=O)NCC(=O)O)c(=O)n(c23)CC1c1ccc(C(F)(F)F)cc1 (stereo not shown) [Example 123, 2-(9-Fluoro-7-hydroxy-1-methyl-5-oxo-2-(4-(trifluoromethyl)phenyl)-1,2,3,5-tetrahydropyrido[1,2,3-de]quinoxaline-6-carboxamido)acetic acid]
10 | – | 1 | O=C(O)CNC(=O)c1c(O)c2cccc3c2n(c1=O)CC(c1ccc(C(F)(F)F)cc1)[S+]3[O-] (stereo not shown) [Example 61, 2-(7-hydroxy-1-oxido-5-oxo-2-(4-(trifluoromethyl)phenyl)-3,5-dihydro-2H-[1,4]thiazino[2,3,4-ij]quinoline-6-carboxamido)acetic acid]
11 | 1.7 | – | CS(=O)(=O)c1cc2c3c(c1)c(O)c(C(=O)NCC(=O)O)c(=O)n3C(Cc1ccc(C(F)(F)F)cc1)CO2 (stereo not shown) [Example 6, 2-(7-Hydroxy-9-(methylsulfonyl)-5-oxo-3-(4-(trifluoromethyl)benzyl)-3,5-dihydro-2H-[1,4]oxazino[2,3,4-ij]quinoline-6-carboxamido)acetic acid]
12 | – | 1.4 | N#Cc1ccc2c(O)c(C(=O)NCC(=O)O)c(=O)n3c2c1OCC3c1cncs1 (stereo not shown) [Example 182, ammonium 2-(10-cyano-7-hydroxy-5-oxo-3-(thiazol-5-yl)-3,5-dihydro-2H-[1,4]oxazino[2,3,4-ij]quinoline-6-carboxamido)acetate]
13 | – | 8.1 | Nc1ccc(-c2ccc3c(O)c(C(=O)NCC(=O)O)c(=O)n4c3c2OCC4)cn1 [Example 156, N-{[10-(6-aminopyridin-3-yl)-7-hydroxy-5-oxo-2,3-dihydro-5H-[1,4]oxazino[2,3,4-ij]quinolin-6-yl]carbonyl}glycine]
14 | – | 5 | O=C(O)CNC(=O)c1c(O)c2ccc(Br)c3c2n(c1=O)C(c1cscn1)CO3 (stereo not shown) [Example 170, 2-(10-bromo-7-hydroxy-5-oxo-3-(thiazol-4-yl)-3,5-dihydro-2H-[1,4]oxazino[2,3,4-ij]quinoline-6-carboxamido)acetic acid]
15 | 5.1 | – | O=C(O)CNC(=O)c1c(O)c2cccc3c2n(c1=O)C(c1cncs1)CS3 (stereo not shown) [Example 105, 2-(7-Hydroxy-5-oxo-3-(thiazol-5-yl)-3,5-dihydro-2H-[1,4]thiazino[2,3,4-ij]quinoline-6-carboxamido)acetic acid]
16 | – | 4.7 | O=C(O)CNC(=O)c1c(O)c2cccc3c2n(c1=O)C(c1ccc(-c2ccc(C(F)(F)F)nc2)cc1)CO3 (stereo not shown) [Example 143, N-[(7-hydroxy-5-oxo-3-{4-[6-(trifluoromethyl)pyridin-3-yl]phenyl}-2,3-dihydro-5H-[1,4]oxazino[2,3,4-ij]quinolin-6-yl)carbonyl]glycine]
17 | 1.1 | – | CS(=O)(=O)c1ccc2c(O)c(C(=O)NCC(=O)O)c(=O)n3c2c1CCC3 [Example 45, 2-(1-Hydroxy-8-(methylsulfonyl)-3-oxo-3,5,6,7-tetrahydropyrido[3,2,1-ij]quinoline-2-carboxamido)acetic acid]
18 | 5.4 | – | N#Cc1ccc2c(O)c(C(=O)NCC(=O)O)c(=O)n3c2c1OCC3c1ccc(C(F)(F)F)cc1 (stereo not shown) [Example 178, Ammonium 2-(10-cyano-7-hydroxy-5-oxo-3-(4-(trifluoromethyl)phenyl)-3,5-dihydro-2H-[1,4]oxazino[2,3,4-ij]quinoline-6-carboxamido)acetate]
19 | 4.4 | – | O=C(O)CNC(=O)c1c(O)c2cc(Br)cc3c2n(c1=O)CC(c1ccc(C(F)(F)F)cc1)O3 (stereo not shown) [Example 16, 2-(9-Bromo-7-hydroxy-5-oxo-2-(4-(trifluoromethyl)phenyl)-3,5-dihydro-2H-[1,4]oxazino[2,3,4-ij]quinoline-6-carboxamido)acetic acid]
20 | 0.8 | – | O=C(O)CNC(=O)c1c(O)c2cccc3c2n(c1=O)CC(c1ccc(C(F)(F)F)cc1)S3(=O)=O (stereo not shown) [Example 60, 2-(7-Hydroxy-1,1-dioxido-5-oxo-2-(4-(trifluoromethyl)phenyl)-3,5-dihydro-2H-[1,4]thiazino[2,3,4-ij]quinoline-6-carboxamido)acetic acid]
21 | 30 | – | CN1CC(c2ccc(C(F)(F)F)cc2)n2c(=O)c(C(=O)NCC(=O)O)c(O)c3cc(F)cc1c32 (stereo not shown) [Example 122, 2-(9-Fluoro-7-hydroxy-1-methyl-5-oxo-3-(4-(trifluoromethyl)phenyl)-1,2,3,5-tetrahydropyrido[1,2,3-de]quinoxaline-6-carboxamido)acetic acid]
22 | 2.3 | – | O=C(O)CNC(=O)c1c(O)c2ccc(Br)c3c2n(c1=O)CC(c1ccc(C(F)(F)F)cc1)O3 (stereo not shown) [Example 22, 2-(10-Bromo-7-hydroxy-5-oxo-2-(4-(trifluoromethyl)phenyl)-3,5-dihydro-2H-[1,4]oxazino[2,3,4-ij]quinoline-6-carboxamido)acetic acid]
